Experimental data as given in patent US8486974B2 (priority 2007, dated 2013).

What was measured:
[1] = Hydrolysis and aspirin release in buffered human plasma solution (HPLC); conditions: for aspirin production / aspirin produced: 50% human plasma
[2] = cited from earlier work
[3] = in vivo; cited from earlier work
[4] = tested on: human platelet aggregation to arachidonic acid; assay: Human platelet aggregation to arachidonic acid in platelet rich plasma; format: cell-based; conditions: Homo sapiens, platelet rich plasma
Experimental: (§1) Blood was collected from healthy volunteers who had not taken any drugs known to affect platelet function for at least 14 days prior to the study. Platelet rich plasma (PRP) and washed platelet suspensions (2.5×10^8 platelets/ml) were prepared from blood as previously described.
(§2) Platelet aggregation was measured by light aggregometry as previously described. Briefly, PRP and washed platelet samples (2.5×10^8/ml) were placed in a whole blood ionized calcium lumi-aggregometer (Chronolog Corp., Havertown, Pa., U.S.A), and (BIO/DATA CORPORATION) and incubated for 10 min at 37° C., with stirring at 900 r.p.m., prior to the addition of aggregating agents. Aggregation was initiated by the addition of agonists, and monitored by Aggro-Link software for at least 6 min. For experiments using inhibitors, aggregation was initiated after 10 min preincubation with these compounds

GPIIb/IIIa = assay: Flow cytometry of activated GPIIb/IIIa (PAC-1) on platelets; format: cell-based, human
Experimental: In order to analyze receptor expression on the surface of individual platelets and to minimize platelet activation caused by sample preparation procedures, no stirring or vortexing steps were used. The abundance of activated GPIIb/IIIa and P-selectin on the surface of platelets in the presence and absence of inhibitors was measured by flow cytometry. Platelet samples were first activated with agonists either collagen or ADP. When platelet aggregation reached 50% maximal light transmission the reaction was terminated by 10-fold dilution with physiologic saline. Resting platelets were used as control. In most of the experiments, platelets were preincubated with inhibitors for 10 min prior to the addition of agonists. Platelet samples were then incubated in the dark without stirring for 5 min at room temperature in the presence of saturating concentrations (10 μg/ml) of P-selectin (CD62P-APC). The activated GPIIb/IIIa platelet receptors were measured using PAC-1 monoclonal antibody at the same concentration as above. PAC-1 specifically recognizes an epitope on the high-affinity GPIIb/IIIa complex of activated platelets at or near the […]. Following incubation, samples were diluted in FACS Flow fluid and analyzed within 5 min using a BD FACSArray (BD Biosciences, Oxford, UK). Flow cytometry was performed on single stained platelet samples as described before^3. The instrument was set up to measure the size (forward scatter), granularity (side scatter) and cell fluorescence. A two-dimensional analysis gate of forward and side scatter was drawn in order to include single platelets and exclude platelet aggregates and microparticles. Antibody binding was measured by analyzing individual platelets for fluorescence. The mean fluorescence intensity was determined after correction for cell autofluorescence. For each sample, the fluorescence was analyzed using a logarithmic scale. Fluorescence histograms were obtained for 10,000 individual events. Data were analyzed using Cytometer RXP software and expressed as a percentage of control fluorescence in arbitrary units.

[5] = tested on: platelet aggregation in human whole blood; assay: Whole blood aggregation studies (impedance method); format: cell-based; conditions: Homo sapiens, Platelet; arachidonic acid; impedance method; read-out: IC50, platelet aggregation towards arachidonic acid in human whole blood
Experimental: A 500 μl aliquot of blood was mixed with 500 μl of physiological saline and allowed to incubate at 37° C. for 10 mins in the incubation well of a Chrono-Log Whole Blood Aggregometer model 591/592. The sample was then transferred to the assay well, baseline was established and appropriate volume of reagent as above was added. Aggregation was monitored over 6 mins with impedance output recorded on a chart recorder. When testing inhibitors whole blood was pre-incubated with appropriate concentrations of inhibitor in DMSO at 37° C. for a specified length of time before adding the stimulant (10 mins with stirring). Three different aggregating agents, AA (0.5 mM), ADP (10 μM) and Collagen (5 μg/ml) were used. […] DMSO in high concentrations (above 0.25%) can induce a concentration dependent change in platelet cytoplasmic ionised calcium. Before each experiment a control was run using PRP to obtain normal aggregating responses. A sample was also incubated for 10 min at 37° C. with 10 μl DMSO to ensure it was having no inhibitory effect on the aggregation response.

[6] = target: T1, purified human serum BuChE (Homo sapiens, UniProt P06276); assay: Hydrolysis by purified human serum butyrylcholinesterase; format: in vitro ADME; conditions: Purified human serum (0.15 mg/ml); conc drug 0.12 mM
T1 construct: Purified human serum butyrylcholinesterase (EC 3.1.1.8); purchased Sigma-Aldrich; host or cells: human serum
Experimental: Pooled plasma/serum solutions (4 ml) were prepared to the correct strength by dilution of plasma with phosphate buffer pH 7.4 (e.g. for a 10% solution 0.4 ml of plasma/serum was added to 3.6 ml of phosphate buffer pH 7.4). Following equilibration of the plasma/serum sample at 37±0.5° C. 100 μl of a stock solution of test compound in acetonitrile (1×10^−4 M) was added and 250 μl aliquots were removed at specified time intervals. Samples were transferred to 1.5 ml Eppendorf tubes containing 500 μl of a 2% w/v solution of nSO4.7H2O (water:acetonitrile, 1:1). Tubes were vortexed for 2 minutes, then centrifuged at 10,000 rpm for 3 minutes at room temperature. Supernatant was aspirated off and analysed by HPLC. The concentration of test compound and metabolites were determined with reference to calibration curves run on that day in the same concentration range and under the same experimental conditions. In order to mimic conditions during the first passage of the drugs after intestinal absorption selected compounds were incubated in phosphate buffer at 37° C. in the presence of microsomes from human liver (HLM) and intestinal epithelium (HIM). The metabolic fate of the esters under these conditions was also determined by RPHPLC by measuring the concentration of drug and metabolites in the medium as a function of time. The identity of participating enzymes was confirmed by using purified enzyme in the case of plasma (BuChE) and by repeating the hydrolysis experiments in the presence of esterase specific inhibitors—isoOMPA for BuChE and BNPP for carboxylesterase. The BuChE activity of plasma and microsomal samples was determined using the Ellman assay (Ellman et al., 1964).

[7] = human, 2.4 µM, pH 7.4
[8] = target: horse plasma butyrylcholinesterase (Equus caballus, UniProt P81908); conditions: cited from earlier work
[9] = tested on: ADP-induced platelet aggregation; assay: ADP-induced platelet aggregation in PRP; format: cell-based, human
Experimental: as §1, §2
(§3) Collagen at different concentrations (3-5 ug/ml) was also used to induce platelet aggregation. The submaximal concentrations of agonists, i.e. the concentrations that gave approximately 95% of the maximal aggregation were used to study the effects of inhibitors of aggregation. Results were expressed in percent changes in maximal light transmission, with 100% representing light transmission of platelet medium alone.

[10] = tested on: collagen-induced human platelet aggregation; assay: Collagen-induced human platelet aggregation in vitro; format: cell-based
Experimental: as §1, §2, §3

[11] = phosphate buffered human plasma solutions (Gilmer et al., 2002)

T1 sequence (P06276 29-602): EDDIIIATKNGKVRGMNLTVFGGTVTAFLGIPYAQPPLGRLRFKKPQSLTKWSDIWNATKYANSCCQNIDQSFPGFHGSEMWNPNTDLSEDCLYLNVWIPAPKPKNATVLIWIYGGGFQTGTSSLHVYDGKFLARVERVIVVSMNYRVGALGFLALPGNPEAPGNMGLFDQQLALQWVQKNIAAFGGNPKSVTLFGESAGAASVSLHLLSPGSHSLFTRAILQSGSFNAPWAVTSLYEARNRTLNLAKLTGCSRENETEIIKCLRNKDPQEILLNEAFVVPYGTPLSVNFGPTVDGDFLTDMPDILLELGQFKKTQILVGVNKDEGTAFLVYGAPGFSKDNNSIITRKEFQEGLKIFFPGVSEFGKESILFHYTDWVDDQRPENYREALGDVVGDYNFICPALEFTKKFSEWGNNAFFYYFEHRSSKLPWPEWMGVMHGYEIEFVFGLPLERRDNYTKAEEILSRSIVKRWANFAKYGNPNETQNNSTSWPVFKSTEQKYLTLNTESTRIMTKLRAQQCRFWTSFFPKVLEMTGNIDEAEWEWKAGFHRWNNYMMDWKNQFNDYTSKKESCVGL
horse plasma butyrylcholinesterase, sequence (P81908 whole entry): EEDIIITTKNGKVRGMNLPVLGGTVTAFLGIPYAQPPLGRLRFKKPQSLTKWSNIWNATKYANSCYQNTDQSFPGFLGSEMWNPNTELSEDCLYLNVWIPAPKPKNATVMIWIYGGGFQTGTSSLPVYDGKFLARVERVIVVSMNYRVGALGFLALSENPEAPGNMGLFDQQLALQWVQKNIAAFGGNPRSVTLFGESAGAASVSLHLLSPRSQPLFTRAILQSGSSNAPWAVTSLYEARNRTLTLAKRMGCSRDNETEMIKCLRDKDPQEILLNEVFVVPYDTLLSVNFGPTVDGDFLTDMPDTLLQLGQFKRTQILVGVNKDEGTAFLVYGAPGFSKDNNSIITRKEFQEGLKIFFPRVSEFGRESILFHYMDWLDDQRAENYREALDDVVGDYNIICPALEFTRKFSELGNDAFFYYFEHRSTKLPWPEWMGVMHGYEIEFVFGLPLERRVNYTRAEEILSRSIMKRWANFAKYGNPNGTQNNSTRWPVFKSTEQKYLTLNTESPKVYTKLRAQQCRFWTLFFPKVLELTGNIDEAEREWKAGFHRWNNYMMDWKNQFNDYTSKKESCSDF

**Q.** What does the source list for `CC(=O)Oc1ccccc1C(=O)O[C@H]1CO[C@H]2[C@@H]1OC[C@H]2O` [Compound 17, Isosorbide-2-aspirinate-5-OH, reference compound]?
**A.** molar % aspirin released in 10% human plasma ([1]; 10% human plasma, pH 7.4, 37° C., peak aspirin as percentage of initial ester concentration in moles): 2.95%; Half-life in 10% human plasma ([1]; 10% human plasma, phosphate buffer pH 7.4, 37° C.): 4.08 min; acts as aspirin prodrug in human plasma ([1]; human plasma): is not an aspirin prodrug; acts as aspirin prodrug in human plasma ([1]; human plasma, listed as 2-aspirinate): None of these acted as aspirin prodrugs

**Q.** With “Isosorbide-2-aspirinate-5-(2-nitrooxy-methyl)benzoate [Compound 31]” as the compound, how does the aspirin production [1] read?
**A.** 10.3 µM

**Q.** And the aspirin produced ([1]; drug 1×10^−4 M)?
**A.** 10.3 µM

**Q.** With `CC(=O)Oc1ccccc1C(=O)O` [aspirin] as the compound, how does the “half-life in dilute plasma” value ([2]; dilute plasma) read?
**A.** around one

**Q.** What about the “half-life in the body” value [3] of the same compound?
**A.** 20 min

**Q.** And the IC50 [4]?
**A.** 5 µM

**Q.** What about the “constitutive platelet glyco-protein expression” value (GPIIb/IIIa; concentrations at which aspirin has no effect) of the same compound?
**A.** has no effect

**Q.** And the “inhibition of platelets activation” value (GPIIb/IIIa; same concentration like ISAS (2) or nitrate compounds 31-32)?
**A.** failed to inhibit platelets activation

**Q.** And the IC50 [5]?
**A.** 25 µM

**Q.** With “Isosorbide-2-aspirinate-5-(3-nitrooxy-methyl)benzoate [Compound 32]” as the compound, how does the “Aspirin” value [6] read?
**A.** 15 µM

**Q.** And the “Drug disappearace” value [6]?
**A.** 10 min

**Q.** And the “Salicylic acid” value [6]?
**A.** 6 µM

**Q.** What about the “Aspirin” value ([1]; 50% HP, conc drug 0.25 mM) of the same compound?
**A.** 26 µM

**Q.** And the “Salicylic acid” value ([1]; 50% HP, conc drug 0.25 mM)?
**A.** 18 µM

**Q.** What about the aspirin production [1] of the same compound?
**A.** 26 µM

**Q.** And the aspirin produced ([1]; drug 2.5×10^−4 M)?
**A.** 26 µM

**Q.** What about the “Salicylic acid” value ([1]; 80% HP, conc drug 0.1 mM) of the same compound?
**A.** 9 µM

**Q.** Which “acts as aspirin prodrug in human plasma” value ([1]; human plasma) does the source give for `CC(=O)Oc1ccccc1C(=O)O[C@@H]1CO[C@H]2[C@@H]1OC[C@@H]2O` [Compound 5-aspirinate, isosorbide-5-aspirinate, reference compound] here?
**A.** None of these acted as aspirin prodrugs

**Q.** Which “aspirin produced in phosphate buffered human plasma solutions” value [2, 11] does the source give for `CC(=O)Oc1ccccc1C(=O)O[C@H]1CO[C@H]2[C@@H]1OC[C@H]2OC(=O)c1ccccc1OC(C)=O` [Compound 16, Isosorbide-di-aspirinate] here?
**A.** approximately 60%

**Q.** And the “hydrolysed along the unproductive salicylate pathway” value [2, 11]?
**A.** 40%

**Q.** What about the “hydrolysis along unproductive salicylate pathway” value [7] of the same compound?
**A.** 40%

**Q.** And the aspirin generated [8]?
**A.** 11%

**Q.** With “Isosorbide-2-aspirinate-5-[2-methylbenzoate] [Compound 1]” as the compound, how does the “aspirin release (hydrolysis along the aspirin pathway) in human plasma” value ([1]; human plasma) read?
**A.** around 60%

**Q.** With “Isosorbide-2-aspirinate-5-(4-nitrooxy-methyl) benzoate [Compound 33]” as the compound, how does the aspirin production [1] read?
**A.** 2 µM

**Q.** What about the aspirin produced ([1]; drug 1×10^−4 M) of the same compound?
**A.** 2 µM

**Q.** For “Isosorbide-2-aspirinate-5-(p-cyanobenzoate) [Compound 20]”, which “potency relative to aspirin, inhibition of ADP-induced platelet aggregation” value [9] is on record?
**A.** more potent inhibitor

**Q.** What about the “potency relative to aspirin, inhibition of collagen-induced human platelet aggregation” value [10] of the same compound?
**A.** more potent than aspirin
